Source: ChEMBL document CHEMBL1147894, “Amphiphilic polyether branched molecules to increase the circulation time of cationic particles” (Bioorg Med Chem, 2007)
Activity calls are given as the source filed them. The rule behind the calls is not given here.

Columns and labels:
[1] = species on record: Mus musculus; experiment: Biodistribution in C57BL/6 mouse blood after 30 mins; assay type: ADME, organism-based; settings: in vivo, 0.5 h
[2] = test system: B16; experiment: Decrease in transfection efficacy in […] B16 cells assessed by luciferase assay; assay type: functional, cell-based

Compound | Activity [1] [%] | Activity [2]
CCCCCCCCCCCCCCN(CCCCCCCCCCCCCC)C(=O)CNC(=O)CNCCCN(CCCN)CCCN.Cl.Cl.Cl.Cl | 2.7 | –
CCCCCCCCCCCCCCCCCCN(CCCCCCCCCCCCCCCCCC)C(=O)CNC(=O)CNC(=O)CNC(=O)OCC(COC(CO)CO)COC(CO)CO | 8 | Active
